Measurements: patent publication US20260144815A1, “BLOOD COAGULATION TIME SHORTENING AGENT FOR BLOOD SPECIMEN DEFICIENT IN COAGULATION FACTOR XII” (SEKISUI MEDICAL CO., LTD., priority 2022, published 2026)

Test system: FXII-deficient specimens
Test: Test 2: APTT coagulation time measurement of FXII-deficient specimens, zinc chloride basic prescription
Type: biochemical, human
Details: metal salt used instead of zinc chloride in combination with the polymer
Description: The following specimens were used: • FXII-deficient specimens (specimens derived from FXII-deficient patients, N=3).
The prescription was the same as that in the test 1 except that copper sulfate pentahydrate in the first reagent (R1) was changed to zinc chloride.
In the control, LIPIDURE (R) was not added.
Test reagents 5-1 to 5-3: zinc chloride in R1 of the basic prescription was changed to the metal salt compound shown in Table 5, and LIPIDURE (R)-BL205 was further added. As the control, the test reagent 4-1 was used.
R1 and R2 were prepared by the same procedure as in the test 1, the coagulation time (APTT) was measured, and the variation rate (%) of APTT with the test reagent with respect to the control was determined.

Row | SMILES | coagulation time of FXII-deficient specimens
1 | O.O.O.O.[Cl][In]([Cl])[Cl] [indium (III) chloride tetrahydrate] | further shortened
2 | O.O.O.O.[Cl][Mn][Cl] [manganese (II) chloride tetrahydrate] | further shortened
